In patent US12240816B2, “Deuterated compounds and uses thereof” (Aldeyra Therapeutics, Inc., priority 2015, dated 2025):
Blank lines part the entries; values can stand above or below the molecule they belong to. Where a SMILES comes first, the peptide text is derived from it. Where no end group is shown, it is not given here.

How the values were obtained:
Experiment in all cases: biochemical
Type in all cases: biochemical
[1] = molecular target: enzyme and uptake assay panel targets (Table 36) (Homo sapiens, UniProt P42574)
[2] = molecular target: enzyme and uptake assay panel targets (Table 36) (Homo sapiens, UniProt Q14790); conditions: caspase-8 (h); reference compound
[3] = molecular target: enzyme and uptake assay panel targets (Table 36) (Homo sapiens, UniProt P03956)
[4] = molecular target: enzyme and uptake assay panel targets (Table 36) (Homo sapiens, UniProt P08253)
[5] = molecular target: enzyme and uptake assay panel targets (Table 36) (Homo sapiens, UniProt P14780)
[6] = molecular target: enzyme and uptake assay panel targets (Table 36) (Homo sapiens, UniProt P09917)
[7] = molecular target: enzyme and uptake assay panel targets (Table 36) (Homo sapiens, UniProt P18054)
[8] = molecular target: enzyme and uptake assay panel targets (Table 36) (Homo sapiens, UniProt P06241); conditions: Fyn kinase (h); reference compound
[9] = molecular target: enzyme and uptake assay panel targets (Table 36) (Homo sapiens, UniProt P08473); conditions: Peptidase, Metalloproteinase, Neutral Endopeptidase; reference compound
[10] = molecular target: enzyme and uptake assay panel targets (Table 36); conditions: COMT (catechol-O-methyl transferase); reference compound
[11] = molecular target: T1, enzyme and uptake assay panel targets (Table 36) (Bos taurus, UniProt P80457)
T1 construct: other: xanthine oxidase/superoxide 02^−scavenging; nH; other: xanthine oxldase/superoxide 02 ^−scavenging; 1.0E−05M; ot; purified xanthine oxidase from bovine milk

[12] = molecular target: enzyme and uptake assay panel targets (Table 36) (Homo sapiens, UniProt O76074); conditions: PDE5 (h) (non-selective); reference compound
[13] = molecular target: enzyme and uptake assay panel targets (Table 36) (Homo sapiens, UniProt Q13370); conditions: PDE3B (h); reference compound
[14] = molecular target: T2, enzyme and uptake assay panel targets (Table 36); conditions: ATPase (Na+/K+); reference compound
T2 construct: other: ATPase (Na+/K+); 1.0E−05M; nH; porcine cerebral cortex

[15] = molecular target: T3, enzyme and uptake assay panel targets (Table 36) (Bos taurus, UniProt P11541+P23439); conditions: PDE6 (non-selective); reference compound
T3 construct: other: PDE6 (non-selective); 1.0E−05M; nH; bovine retina

[16] = molecular target: enzyme and uptake assay panel targets (Table 36) (Homo sapiens, UniProt Q9UQM7); conditions: CaMK2α (h); reference compound
Sequence of enzyme and uptake assay panel targets (Table 36) (Homo sapiens, UniProt Q9UQM7) (Q9UQM7 whole entry): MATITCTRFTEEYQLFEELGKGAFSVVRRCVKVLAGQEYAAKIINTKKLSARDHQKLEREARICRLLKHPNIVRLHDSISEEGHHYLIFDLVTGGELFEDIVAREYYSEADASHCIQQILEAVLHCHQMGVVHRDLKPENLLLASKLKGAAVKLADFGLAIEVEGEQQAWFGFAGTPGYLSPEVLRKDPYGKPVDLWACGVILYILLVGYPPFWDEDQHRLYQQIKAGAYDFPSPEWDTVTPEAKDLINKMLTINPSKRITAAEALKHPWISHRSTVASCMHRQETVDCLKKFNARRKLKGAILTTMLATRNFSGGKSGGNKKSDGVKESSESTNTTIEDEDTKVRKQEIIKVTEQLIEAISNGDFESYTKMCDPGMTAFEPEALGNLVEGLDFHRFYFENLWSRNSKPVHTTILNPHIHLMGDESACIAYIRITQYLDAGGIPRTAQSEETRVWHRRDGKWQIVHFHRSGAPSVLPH

Sequence of enzyme and uptake assay panel targets (Table 36) (Homo sapiens, UniProt P08473) (P08473 whole entry): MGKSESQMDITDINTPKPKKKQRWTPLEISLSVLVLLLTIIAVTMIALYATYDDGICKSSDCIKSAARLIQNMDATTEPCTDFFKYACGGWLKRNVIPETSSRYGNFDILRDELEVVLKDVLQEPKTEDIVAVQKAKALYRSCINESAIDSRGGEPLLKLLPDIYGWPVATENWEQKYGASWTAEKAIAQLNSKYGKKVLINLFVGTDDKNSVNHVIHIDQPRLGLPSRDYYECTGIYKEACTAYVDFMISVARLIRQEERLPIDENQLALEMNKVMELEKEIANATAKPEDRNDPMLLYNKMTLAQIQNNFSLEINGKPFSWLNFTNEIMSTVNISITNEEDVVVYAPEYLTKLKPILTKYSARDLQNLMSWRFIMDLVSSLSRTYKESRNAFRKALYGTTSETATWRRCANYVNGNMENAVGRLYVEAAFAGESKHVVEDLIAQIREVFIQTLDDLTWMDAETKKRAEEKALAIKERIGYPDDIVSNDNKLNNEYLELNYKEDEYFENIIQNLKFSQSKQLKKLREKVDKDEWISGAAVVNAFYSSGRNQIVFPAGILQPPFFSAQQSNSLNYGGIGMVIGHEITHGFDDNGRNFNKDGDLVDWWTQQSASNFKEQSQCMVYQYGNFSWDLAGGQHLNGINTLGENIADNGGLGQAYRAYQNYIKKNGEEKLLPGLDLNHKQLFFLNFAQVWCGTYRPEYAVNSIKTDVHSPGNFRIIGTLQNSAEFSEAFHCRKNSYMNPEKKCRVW
Sequence of enzyme and uptake assay panel targets (Table 36) (Homo sapiens, UniProt Q14790) (Q14790 217-479): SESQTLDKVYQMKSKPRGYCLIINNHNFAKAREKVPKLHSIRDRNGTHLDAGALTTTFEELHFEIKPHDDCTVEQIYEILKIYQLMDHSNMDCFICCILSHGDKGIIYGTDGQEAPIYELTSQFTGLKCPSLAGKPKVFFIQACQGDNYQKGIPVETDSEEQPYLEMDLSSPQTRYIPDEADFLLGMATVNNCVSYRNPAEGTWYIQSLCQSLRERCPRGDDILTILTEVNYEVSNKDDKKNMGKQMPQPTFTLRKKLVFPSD
T1 sequence (P80457 whole entry): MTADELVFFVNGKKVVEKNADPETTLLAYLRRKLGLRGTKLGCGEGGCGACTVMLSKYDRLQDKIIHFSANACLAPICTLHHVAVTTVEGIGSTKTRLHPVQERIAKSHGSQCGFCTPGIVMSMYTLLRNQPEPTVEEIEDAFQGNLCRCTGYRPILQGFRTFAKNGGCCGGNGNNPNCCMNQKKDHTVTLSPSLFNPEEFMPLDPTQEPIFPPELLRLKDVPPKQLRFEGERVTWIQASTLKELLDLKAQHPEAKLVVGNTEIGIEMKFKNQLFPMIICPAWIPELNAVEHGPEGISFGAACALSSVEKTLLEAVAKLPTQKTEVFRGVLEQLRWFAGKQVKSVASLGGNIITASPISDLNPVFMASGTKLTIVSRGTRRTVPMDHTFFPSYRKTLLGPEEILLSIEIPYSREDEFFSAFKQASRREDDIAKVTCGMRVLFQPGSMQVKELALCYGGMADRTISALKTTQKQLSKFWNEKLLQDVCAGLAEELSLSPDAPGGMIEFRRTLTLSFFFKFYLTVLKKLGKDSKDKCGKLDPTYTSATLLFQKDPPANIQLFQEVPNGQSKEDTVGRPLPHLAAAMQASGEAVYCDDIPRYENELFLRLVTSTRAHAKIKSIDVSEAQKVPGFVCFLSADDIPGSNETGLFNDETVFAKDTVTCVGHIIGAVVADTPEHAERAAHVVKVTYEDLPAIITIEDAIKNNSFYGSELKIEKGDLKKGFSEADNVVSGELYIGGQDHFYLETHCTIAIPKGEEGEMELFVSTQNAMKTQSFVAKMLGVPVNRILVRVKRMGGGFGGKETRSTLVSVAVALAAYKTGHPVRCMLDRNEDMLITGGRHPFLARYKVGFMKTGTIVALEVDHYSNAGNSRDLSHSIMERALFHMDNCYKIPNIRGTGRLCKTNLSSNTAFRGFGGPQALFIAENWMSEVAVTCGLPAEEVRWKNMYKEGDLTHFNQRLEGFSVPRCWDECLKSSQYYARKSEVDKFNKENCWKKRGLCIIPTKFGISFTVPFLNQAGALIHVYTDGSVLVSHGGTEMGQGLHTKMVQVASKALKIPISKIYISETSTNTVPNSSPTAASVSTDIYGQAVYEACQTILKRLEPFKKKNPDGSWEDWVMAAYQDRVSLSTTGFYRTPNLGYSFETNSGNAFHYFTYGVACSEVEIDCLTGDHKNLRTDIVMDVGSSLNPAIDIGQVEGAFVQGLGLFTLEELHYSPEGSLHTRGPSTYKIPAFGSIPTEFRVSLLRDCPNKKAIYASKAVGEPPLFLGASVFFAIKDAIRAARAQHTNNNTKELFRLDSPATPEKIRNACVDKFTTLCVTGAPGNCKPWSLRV
Sequence of enzyme and uptake assay panel targets (Table 36) (Homo sapiens, UniProt P08253) (P08253 110-660): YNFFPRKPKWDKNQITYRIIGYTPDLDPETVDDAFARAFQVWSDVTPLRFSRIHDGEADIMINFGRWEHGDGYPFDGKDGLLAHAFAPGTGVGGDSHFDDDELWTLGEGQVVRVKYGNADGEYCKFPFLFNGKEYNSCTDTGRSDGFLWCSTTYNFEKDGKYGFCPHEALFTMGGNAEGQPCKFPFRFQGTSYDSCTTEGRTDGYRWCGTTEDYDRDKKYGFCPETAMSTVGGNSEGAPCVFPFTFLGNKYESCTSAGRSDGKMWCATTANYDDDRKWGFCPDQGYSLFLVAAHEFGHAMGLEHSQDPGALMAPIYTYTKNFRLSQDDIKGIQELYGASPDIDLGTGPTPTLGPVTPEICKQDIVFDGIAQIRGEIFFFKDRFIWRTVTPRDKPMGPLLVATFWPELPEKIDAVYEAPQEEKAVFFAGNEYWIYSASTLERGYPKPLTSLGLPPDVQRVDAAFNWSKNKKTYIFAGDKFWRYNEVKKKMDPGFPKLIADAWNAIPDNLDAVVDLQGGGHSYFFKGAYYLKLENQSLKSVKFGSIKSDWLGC
Sequence of enzyme and uptake assay panel targets (Table 36) (Homo sapiens, UniProt P03956) (P03956 100-469): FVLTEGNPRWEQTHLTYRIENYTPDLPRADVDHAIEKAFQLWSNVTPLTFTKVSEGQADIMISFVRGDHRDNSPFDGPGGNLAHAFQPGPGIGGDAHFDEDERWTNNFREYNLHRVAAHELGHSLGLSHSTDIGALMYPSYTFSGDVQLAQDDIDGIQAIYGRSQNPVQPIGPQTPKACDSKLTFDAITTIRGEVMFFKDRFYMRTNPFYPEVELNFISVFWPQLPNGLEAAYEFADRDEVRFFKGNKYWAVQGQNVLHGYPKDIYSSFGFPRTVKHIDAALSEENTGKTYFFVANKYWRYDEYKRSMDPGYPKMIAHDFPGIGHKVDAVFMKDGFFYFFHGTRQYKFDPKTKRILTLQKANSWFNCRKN
Sequence of enzyme and uptake assay panel targets (Table 36) (Homo sapiens, UniProt P09917) (P09917 whole entry): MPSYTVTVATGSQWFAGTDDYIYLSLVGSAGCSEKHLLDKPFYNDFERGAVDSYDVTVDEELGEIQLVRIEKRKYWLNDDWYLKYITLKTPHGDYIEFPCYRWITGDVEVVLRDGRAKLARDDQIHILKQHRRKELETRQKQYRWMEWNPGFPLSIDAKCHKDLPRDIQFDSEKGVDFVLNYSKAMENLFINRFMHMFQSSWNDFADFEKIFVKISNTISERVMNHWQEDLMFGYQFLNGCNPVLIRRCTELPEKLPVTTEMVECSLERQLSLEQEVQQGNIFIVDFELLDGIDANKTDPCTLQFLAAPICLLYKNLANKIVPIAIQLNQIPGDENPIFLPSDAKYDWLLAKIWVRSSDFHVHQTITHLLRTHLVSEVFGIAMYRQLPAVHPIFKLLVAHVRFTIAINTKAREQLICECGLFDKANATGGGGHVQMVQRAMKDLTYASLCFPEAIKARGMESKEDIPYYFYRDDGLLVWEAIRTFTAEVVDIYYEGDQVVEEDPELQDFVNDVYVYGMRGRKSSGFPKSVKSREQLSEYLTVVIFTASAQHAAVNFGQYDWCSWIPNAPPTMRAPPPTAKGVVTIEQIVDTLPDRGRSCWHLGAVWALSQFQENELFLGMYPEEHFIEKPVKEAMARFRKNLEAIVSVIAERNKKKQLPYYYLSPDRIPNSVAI
Sequence of enzyme and uptake assay panel targets (Table 36) (Homo sapiens, UniProt P06241) (P06241 whole entry): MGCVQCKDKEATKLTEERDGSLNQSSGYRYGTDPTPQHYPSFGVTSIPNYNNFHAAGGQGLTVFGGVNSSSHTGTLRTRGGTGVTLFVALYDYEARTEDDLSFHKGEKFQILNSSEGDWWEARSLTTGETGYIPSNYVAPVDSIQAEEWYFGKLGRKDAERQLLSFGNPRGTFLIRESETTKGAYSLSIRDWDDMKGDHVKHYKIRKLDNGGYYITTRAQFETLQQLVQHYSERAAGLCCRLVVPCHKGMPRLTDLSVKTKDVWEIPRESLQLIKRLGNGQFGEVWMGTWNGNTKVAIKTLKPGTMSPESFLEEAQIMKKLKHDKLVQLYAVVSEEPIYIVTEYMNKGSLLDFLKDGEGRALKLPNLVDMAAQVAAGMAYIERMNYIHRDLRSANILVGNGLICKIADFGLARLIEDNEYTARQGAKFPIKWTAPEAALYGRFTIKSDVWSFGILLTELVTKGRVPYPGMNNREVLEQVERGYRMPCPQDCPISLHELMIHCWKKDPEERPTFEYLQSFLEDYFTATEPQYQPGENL

Molecule: CC(=O)N[C@@H](CC(=O)O)C(=O)N[C@@H](CCC(=O)O)C(=O)N[C@H](C(=O)N[C@H](C=O)CC(=O)O)C(C)C [Ac-DEVD-CHO]
nH [1]: 1.1

IC50 [2]: 28 nM
nH [2]: 0.8
Molecule: CC[C@H](C)[C@H](NC(C)=O)C(=O)N[C@@H](CCC(=O)O)C(=O)N[C@H](C(=O)N[C@H](C=O)CC(=O)O)[C@@H](C)O [Ac-IETD-CHO] (Ac-IETD-aldehyde)

Molecule: CNC(=O)[C@H](Cc1c[nH]c2ccccc12)NC(=O)[C@@H](CC(=O)NO)CC(C)C [GM6001]
nH [3]: 1.3
nH [4]: 1.3
nH [5]: 0.9

Molecule: CC(Cc1ccc(O)c(O)c1)C(C)Cc1ccc(O)c(O)c1 (stereo not drawn) [NDGA]
nH [6]: 1.6
nH [7]: 1.2

Molecule: Cc1ccc(-c2nn(C(C)(C)C)c3ncnc(N)c23)cc1 [PP1]
nH [8]: >3

IC50 [9]: 16 nM
nH [9]: 0.9
Molecule: CC(C)C[C@H](NP(=O)(O)O[C@@H]1O[C@@H](C)[C@H](O)[C@@H](O)[C@H]1O)C(=O)N[C@@H](Cc1c[nH]c2ccccc12)C(=O)O [Phosphoramidon]

Molecule: O=C(c1cc(O)c(O)c([N+](=O)[O-])c1)c1ccccc1F [Ro 41-0960]
IC50 [10]: 30 nM

Molecule: Oc1ncnc2[nH]ncc12 [allopurinol]
nH [11]: 1.3

nH [12]: 1.1
Molecule: OCCN(CCO)c1nc(N2CCCCC2)c2nc(N(CCO)CCO)nc(N3CCCCC3)c2n1 [dipyridamole]

nH [13]: 0.9
Molecule: Cc1[nH]c(=O)c(C#N)cc1-c1ccncc1 [milrinone]

Molecule: C[C@@H]1O[C@@H](O[C@H]2C[C@@H](O)[C@]3(CO)[C@H]4[C@H](O)C[C@]5(C)[C@@H](C6=CC(=O)OC6)CC[C@]5(O)[C@@H]4CC[C@]3(O)C2)[C@H](O)[C@H](O)[C@H]1O [ouabain]
IC50 [14]: 1000 nM

Molecule: CCCOc1ccccc1-c1nc2nn[nH]c2c(=O)[nH]1 [zaprinast]
nH [15]: 1.0

IC50 [16]: 260 nM
Molecule: KKALRRQEAVDAL [AIP]
